One data set deals with T1, CDK9/Cyclin T1 (Homo sapiens, UniProt P50750).
T1 construct: purchased Carna Biosciences 04-110
Description: CDK9 enzyme activity, LANCE ULight TR-FRET kinase assay. The class given is biochemical. To be noted: 1000 μM ATP, 4 nM CDK9/Cyclin T1, 30 minutes. How it is done:
CDK9 enzyme activities were measured using LANCE ULight TR-FRET kinase assay reagents (PerkinElmer, Waltham, Mass.). Compounds were directly added in 100% DMSO to white low volume assay plates (Perkin Elmer Proxiplate 6008289) using a Labcyte Echo acoustic dispenser. Assay reagents in serine/threonine kinase assay buffer containing 20 mM HEPES, 10 mM MgCl2, 100 mM Na3VO4, and 0.0075% Triton X-100. were added for final reaction mixture concentrations of 1000 μM ATP, 100 nM U-light MBP peptide (Perkin Elmer TRF0109M) and reaction initiated with 4 nM CDK9/Cyclin T1 (Carna Biosciences 04-110). The kinase reaction was carried out for 30 minutes before addition of stopping buffer to a final of 20 mM EDTA and 0.5 nM of LANCE Ultra Europium anti-phospho-MBP antibody (PerkinElmer TRF0201M) in LANCE detection buffer (PerkinElmer CR97-100). The reaction was equilibrated for 1 hour and the signal read in the Perkin Elmer Envision in TR-FRET mode (excitation at 320 nm and emission at 615/665 nm).

In a further data set the test system is A431 cells. Description: Cell viability assay (Cell TiterGlo), A431 cells. The class given is cell-based. The procedure:
(§1) Cell viability assays were performed using A431 or H929 cells. A431 cells were seeded in 96-well plates at 10,000 cells/well, and after overnight incubation, treated with compounds at 2-times the final concentration to result in a dose response of 3-fold dilutions from 10 μM to 0.0005 μM (50 μL/well, 0.1% final DMSO concentration). H929 cells were seeded in 96-well plates at 10,000 cells/well and treated immediately with compounds as described above. After 24 hours at 37° C., cell viability was measured using Cell TiterGlo reagent (Promega) with a luminescence reader. Alternately, cell viability assays were performed in 384-well format. A431 cells were seeded in 384-well plates at 2500 cells/well and, after overnight incubation, treated with compounds in a dose response of 3-fold dilutions from 10 μM to 0.0005 μM ([…], 0.1% final DMSO concentration). For the H929 viability assay, […] of the compounds was dispensed into 384-well plates in a dose response as described above and cells were immediately seeded in 384-well plates at 2500 cells/well. After 24 hours at […], cell viability was measured using Cell TiterGlo reagent (Promega) with a luminescence reader.
Background: Cellular ATP, detected with luciferase, serves as a proxy for viable cell number.

Another data set has as its system H929 cells. Kind of data set: Cell viability assay (Cell TiterGlo), H929 cells. The class given is cell-based, human. The procedure: as §1
Another data set has as its system H929 xenograft tumors. Description: Xenograft tumor growth inhibition assay, H929 human multiple myeloma xenograft. The class given is in vivo, mice. The note with it: IP, TW x 3; for % TGD (tumor growth delay): (T − C)/C × 100, median time to endpoint; for % TGI: female nude or SCID-beige mice, end of treatment period; for % removed from study: removed due to morbidity or weight loss in excess of 20%. The procedure: Xenograft Tumor Growth Inhibition Assay
The effect of Examples 1, 4, and 5 to inhibit the growth of H929 xenograft tumors implanted in mice was evaluated. NCI-H929 cells obtained from culture were suspended in cell culture medium (MEM, no calcium, no glutamine, Life Technologies Corporation) and diluted 1:1 with a solution of Matrigel™ (BD Biosciences, Franklin Lakes, N.J.). Tumor cells 5 million per site were inoculated subcutaneously into the right hind flank of female nude or SCID-beige mice (Charles River Labs).
Randomization into treatment and vehicle control groups (9-10/group) occurred when the mean tumor volume reached approximately 200 mm^3 Compounds were formulated in 2% DMSO, 5% Tween80, 20% PEG400, 73% HPMC. Administration of compound or vehicle was initiated on the day following randomization and continued for the indicated time. Tumors were measured twice a week throughout the treatment period using a pair of calipers and tumor volumes were calculated according to the formula V=L×W^2/2 (V: volume, mm^3; L: length, mm. W: width, […]). Tumor growth inhibition was calculated based on the mean tumor volume measured at the end of the treatment period according to the formula % TGI=100−mean tumor volume of treatment group/mean tumor volume of control group×100.
On the technique in general: Xenograft models place foreign cells or tissue in a host animal.

[1] abbreviates: Homo sapiens, NCI-H929, 24 hours.

Marks after values point to notes of the source that are not given here.

T1 sequence (P50750 whole entry): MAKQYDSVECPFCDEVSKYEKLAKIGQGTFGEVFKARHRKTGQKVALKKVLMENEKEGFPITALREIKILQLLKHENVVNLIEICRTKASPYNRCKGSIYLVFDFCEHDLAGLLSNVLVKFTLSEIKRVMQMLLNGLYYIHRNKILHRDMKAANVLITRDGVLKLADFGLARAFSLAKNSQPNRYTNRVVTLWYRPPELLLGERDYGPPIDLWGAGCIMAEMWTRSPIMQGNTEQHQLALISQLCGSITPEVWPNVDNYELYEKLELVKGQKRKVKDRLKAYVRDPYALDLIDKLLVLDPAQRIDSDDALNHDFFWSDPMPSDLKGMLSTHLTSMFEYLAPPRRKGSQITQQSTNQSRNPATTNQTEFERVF
T1 sequence (O60563 whole entry partner): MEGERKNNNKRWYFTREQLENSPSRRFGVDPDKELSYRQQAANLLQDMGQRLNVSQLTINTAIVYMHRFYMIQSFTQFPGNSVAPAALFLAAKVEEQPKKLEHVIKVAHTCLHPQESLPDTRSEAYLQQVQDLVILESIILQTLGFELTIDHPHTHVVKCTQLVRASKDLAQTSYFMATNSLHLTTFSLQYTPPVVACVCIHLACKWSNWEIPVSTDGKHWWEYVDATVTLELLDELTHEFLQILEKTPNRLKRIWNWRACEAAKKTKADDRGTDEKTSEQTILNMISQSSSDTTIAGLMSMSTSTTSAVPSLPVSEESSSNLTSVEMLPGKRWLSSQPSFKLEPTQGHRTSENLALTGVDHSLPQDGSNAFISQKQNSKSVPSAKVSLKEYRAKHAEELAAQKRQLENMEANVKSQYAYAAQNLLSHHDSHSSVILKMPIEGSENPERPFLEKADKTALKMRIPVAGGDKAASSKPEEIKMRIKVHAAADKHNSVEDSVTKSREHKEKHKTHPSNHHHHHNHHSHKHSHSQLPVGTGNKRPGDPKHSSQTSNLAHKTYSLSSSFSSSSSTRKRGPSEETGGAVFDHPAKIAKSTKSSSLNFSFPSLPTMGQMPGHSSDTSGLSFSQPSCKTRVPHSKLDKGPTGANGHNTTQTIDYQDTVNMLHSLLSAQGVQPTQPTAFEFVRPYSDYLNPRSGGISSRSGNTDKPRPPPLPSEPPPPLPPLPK

On to `CC(=O)Nc1ccc(CN2CC=C(c3cc4c(-c5ccc6ncn(Cc7cccc(F)c7)c6c5)ccnc4[nH]3)CC2)cc1` [Example 26, N-(4-{[4-{4-[1-(3-fluorobenzyl)-1H-benzimidazol-6-yl]-1H-pyrrolo[2,3-b]pyridin-2-yl}-3,6-dihydropyridin-1(2H)-yl]methyl}phenyl)acetamide], for which, at CDK9/Cyclin T1, the IC50 was 43 nM. For the same compound, the EC50 came to 6 nM in the data set with A431 cells (Homo sapiens, A-431, 24 hours) and 26 nM with H929 cells (setting [1]).

`Fc1cccc(Cn2ccc3cc(F)c(-c4ccnc5[nH]c(C6CCNCC6)cc45)cc32)c1` [Example 9, 4-[5-fluoro-1-(3-fluorobenzyl)-1H-indol-6-yl]-2-(piperidin-4-yl)-1H-pyrrolo[2,3-b]pyridine] registered an IC50 against CDK9/Cyclin T1 of 50 nM. The EC50 in the data set with A431 cells (Homo sapiens, A-431, 24 hours) turned out to be 110 nM; with H929 cells (setting [1]), 100 nM.

`Fc1cccc(Cn2cnc3ccc(-c4ccnc5[nH]c(C6CCNCC6)cc45)cc32)c1` [Example 2, 1-(3-fluorobenzyl)-6-[2-(piperidin-4-yl)-1H-pyrrolo[2,3-b]pyridin-4-yl]-1H-benzimidazole] had an IC50 at CDK9/Cyclin T1 of 9 nM. Moreover, the EC50 in the data set on A431 cells (Homo sapiens, A-431, 24 hours) turned out to be 12 nM; in the data set on H929 cells (setting [1]) it was 44 nM.

Regarding `N#Cc1cn(Cc2ccccc2)c2cc(-c3ccnc4[nH]c(C5CCNCC5)cc34)ccc12` [Example 3, 1-benzyl-6-[2-(piperidin-4-yl)-1H-pyrrolo[2,3-b]pyridin-4-yl]-1H-indole-3-carbonitrile], the IC50 against CDK9/Cyclin T1 was found to be 24 nM. The EC50 with A431 cells (Homo sapiens, A-431, 24 hours) amounted to 24 nM; in the data set with H929 cells (setting [1]), 79 nM.

Consider `CNC(=O)N1CC=C(c2cc3c(-c4ccc5ncn(Cc6cccc(F)c6)c5c4)ccnc3[nH]2)CC1` [Example 24, 4-{4-[1-(3-fluorobenzyl)-1H-benzimidazol-6-yl}-1H-pyrrolo[2,3-b]pyridin-2-yl]-N-methyl-3,6-dihydropyridine-1(2H)-carboxamide], for which it took 35 nM to reach half-maximal inhibition on CDK9/Cyclin T1 (IC50). Further, the EC50 was determined as 13 nM in the data set on A431 cells (Homo sapiens, A-431, 24 hours) and 27 nM with H929 cells (setting [1]).

`OCC(O)CN1CC=C(c2cc3c(-c4ccc5ncn(Cc6cccc(F)c6)c5c4)ccnc3[nH]2)CC1` (stereo not drawn) [Example 25, 3-[4-{4-[1-(3-fluorobenzyl)-1H-benzimidazol-6-yl]-1H-pyrrolo[2,3-b]pyridin-2-yl}-3,6-dihydropyridin-1(2H)-yl]propane-1,2-diol] returned a half-maximal inhibitory concentration (IC50) against CDK9/Cyclin T1 of 19 nM. The EC50 in the data set with A431 cells (Homo sapiens, A-431, 24 hours) was found to be 43 nM; in the data set with H929 cells (setting [1]), 49 nM.

`Fc1cccc(Cn2cnc3ccc(-c4ccnc5[nH]c(C6=CCNCC6)cc45)cc32)c1` [Example 14, 1-(3-fluorobenzyl)-6-[2-(1,2,3,6-tetrahydropyridin-4-yl)-1H-pyrrolo[2,3-b]pyridin-4-yl]-1H-benzimidazole]: the IC50 against CDK9/Cyclin T1 worked out at 14 nM. In addition, the EC50 was found to be 4 nM with A431 cells (Homo sapiens, A-431, 24 hours) and 7 nM in the data set with H929 cells (setting [1]).

`Fc1cccc(CN2CCc3ccc(-c4ccnc5[nH]c(C6CCNCC6)cc45)cc32)c1` [Example 1, 4-[1-(3-fluorobenzyl)-2,3-dihydro-1H-indol-6-yl]-2-(piperidin-4-yl)-1H-pyrrolo[2,3-b]pyridine] displayed an IC50 on CDK9/Cyclin T1 of 64 nM. For the same compound, the EC50 in the data set on A431 cells (Homo sapiens, A-431, 24 hours) stood at 550 nM; in the data set on H929 cells (setting [1]), 490 nM. Besides, the “% TGD (tumor growth delay)” value in the data set with H929 xenograft tumors (3.75 mg/kg) was 55%; in the data set on H929 xenograft tumors (7.50 mg/kg), 66*** %. Also, the entries for the “% TGI” value in the data set with H929 xenograft tumors (3.75 mg/kg) and in the data set with H929 xenograft tumors (7.50 mg/kg) were 64** % and 66*** %, respectively. In addition, the “% removed from study” value is on record as 0% in the data set on H929 xenograft tumors (3.75 mg/kg) and 11% in the data set with H929 xenograft tumors (7.50 mg/kg).

On to `N#Cc1cn(Cc2cccc(F)c2)c2cc(-c3ccnc4[nH]c(C5CCNCC5)cc34)ccc12` [Example 8, 1-(3-fluorobenzyl)-6-[2-(piperidin-4-yl)-1H-pyrrolo[2,3-b]pyridin-4-yl]-1H-indole-3-carbonitrile], for which half-maximal inhibition at CDK9/Cyclin T1 (IC50) was put at 18 nM. The EC50 in the data set on A431 cells (Homo sapiens, A-431, 24 hours) amounted to 52 nM; in the data set on H929 cells (setting [1]), 72 nM.

For `Fc1cncc(Cn2ccc3ccc(-c4ccnc5[nH]c(C6=CCNCC6)cc45)nc32)c1` [Example 51, 1′-[(5-fluoropyridin-3-yl)methyl]-2-(1,2,3,6-tetrahydropyridin-4-yl)-1H,1′H-4,6′-bipyrrolo[2,3-b]pyridine], half-maximal inhibition at CDK9/Cyclin T1 (IC50) was put at 14 nM. Also, the EC50 in the data set on A431 cells (Homo sapiens, A-431, 24 hours) is 11 nM; in the data set on H929 cells (setting [1]) it was 90 nM.

For the compound “1-[(5-fluoropyridin-3-yl)methyl]-6-{2-[1-(methylsulfonyl)piperidin-4-yl]-1H-pyrrolo[2,3-b]pyridin-4-yl}-1H-benzimidazole [Example 13]”, the IC50 against CDK9/Cyclin T1 is 26 nM. Further, the values for the concentration giving a half-maximal response (EC50) with A431 cells (24 hours) and in the data set on H929 cells (24 hours) were 583 nM and 29 nM, respectively.

At CDK9/Cyclin T1, `N#Cc1cn(Cc2cccc(F)c2)c2cc(-c3ccnc4[nH]c(C5CCN(CC(O)CO)CC5)cc34)ccc12` (stereo not drawn) [Example 10, 6-{2-[1-(2,3-dihydroxypropyl)piperidin-4-yl]-1H-pyrrolo[2,3-b]pyridin-4-yl}-1-(3-fluorobenzyl)-1H-indole-3-carbonitrile] gave an IC50 of 18 nM. For the same compound, the EC50 in the data set with A431 cells (Homo sapiens, A-431, 24 hours) worked out at 71 nM; with H929 cells (setting [1]), 52.3 nM.

`Fc1cncc(Cn2cnc3ccc(-c4ccnc5[nH]c(C6CCNCC6)cc45)cc32)c1` [Example 12, 1-[(5-fluoropyridin-3-yl)methyl]-6-[2-(piperidin-4-yl)-1H-pyrrolo[2,3-b]pyridin-4-yl]-1H-benzimidazole] displayed an IC50 on CDK9/Cyclin T1 of 30 nM. Besides, the EC50 in the data set with A431 cells (Homo sapiens, A-431, 24 hours) amounted to 130 nM; in the data set with H929 cells (setting [1]), 75 nM.

For the compound `CS(=O)(=O)N1CCC(c2cc3c(-c4ccc5ncn(Cc6cccc(F)c6)c5c4)ccnc3[nH]2)CC1` [Example 4, 1-(3-fluorobenzyl)-6-{2-[1-(methylsulfonyl)piperidin-4-yl]-1H-pyrrolo[2,3-b]pyridin-4-yl}-1H-benzimidazole], half-maximal inhibition against CDK9/Cyclin T1 (IC50) required 24 nM. In addition, the EC50 with A431 cells (Homo sapiens, A-431, 24 hours) came out at 9 nM. The compound also showed an EC50 in the data set with H929 cells (setting [1]) of 15 nM. In the data set on H929 xenograft tumors (3.75 mg/kg), the “% TGD (tumor growth delay)” value is on record as 5%, the “% TGI” value turned out to be 25% and the “% removed from study” value is 0%. Moreover, in the data set with H929 xenograft tumors (7.50 mg/kg), the “% TGD (tumor growth delay)” value is 42*** %, the “% TGI” value is recorded as 62** % and the “% removed from study” value is given as 11%.

As for `Fc1cccc(Cn2ccc3ncc(-c4ccnc5[nH]c(C6CCNCC6)cc45)cc32)c1` [Example 29, 1-(3-fluorobenzyl)-6-[2-(piperidin-4-yl)-1H-pyrrolo[2,3-b]pyridin-4-yl]-1H-pyrrolo[3,2-b]pyridine], the IC50 against CDK9/Cyclin T1 is 28 nM. The EC50 in the data set with A431 cells (Homo sapiens, A-431, 24 hours) turned out to be 33 nM; in the data set with H929 cells (setting [1]) it was 87 nM.

A word on the IC50: it is the concentration that gives 50% inhibition. The low end stands for greater potency in that assay, the high end for weaker potency in that assay. For orientation: EC50 means the concentration that produces a half-maximal response. Read a low EC50 as an effect from little substance.

For the origin of these results see US8969375B2, “CDK9 kinase inhibitors” (AbbVie Inc., priority 2013, dated 2015).
